The subject of the assay is α-adrenergic. Briefly: α-adrenergic blocking activity in vitro.

Consider `CN1CCN(C2=Nc3ccccc3Cc3nccn32)CC1` [example 1, 5-(4-methyl-1-piperazinyl)-11H-imidazo[1,2-c][1,3]benzodiazepine], for which the α-adrenergic blocking activity entry is given as “only minimal”.
